A word on the IC50: it is the midpoint of a concentration-inhibition curve.

Like-named read-outs stand apart in the source and are kept apart here.

In series [1] the test system is A2780 cells. Put plainly: Chemosensitivity assay (MTT) in A2780 cells. The format is cell-based. To be noted: for IC50: 24 h exposure + 48 h recovery, MTT, mean ± SD, read-out: IC50 A2780. The text has this:
(§1) The antiproliferative activity of the ind-py ligand and of complexes 1–4 against ovarian cancer A2780 (cisplatin sensitive) and A2780cisR (cisplatin resistant) cell lines was studied. The IC50 values obtained for all the complexes are shown in Table 2, together with values for cisplatin, which was used as a positive control (untreated cells for 100% viability as negative control). […] One of the major limitations of existing anticancer drugs is their poor selectivity towards cancer cells. Comparing the response of the cancer cell lines to the normal PNT2 cells provides a preliminary indication towards the selectivity of the compounds.
(§2) In vitro chemosensitivity tests were performed against A2780, A2780cisR and PNT2 cells. Cells were routinely maintained as monolayer cultures in RPMI medium supplemented with 10% foetal calf serum, penicillin (100 I.U./mL) and streptomycin (100 μg/mL), sodium pyruvate (1 mM) and L-glutamine (2 mM). For chemosensitivity studies, cells were incubated in 96-well plates at a concentration of 7.5 × 10^3 cells per well and the plates were incubated for 24 h at 37 °C and a 5% CO2 humidified atmosphere prior to drug exposure.
(§3) Complexes were dissolved in DMSO to provide stock solutions, which were further diluted with media to provide a range of final concentrations. Drug-media solutions were added to cells (the final concentration of DMSO was less than 1% (v/v) in all cases) and incubated for 24 h at 37 °C and 5% CO2 humidified atmosphere. The drug-media was removed from the wells and the cells were washed with PBS (100 μL, twice), and 100 μL of complete fresh media were added to each well. The plates were further incubated for 48 h at 37 °C in a 5% CO2 humidified atmosphere to allow for a period of recovery. 3-(4,5-dimethylthiazol-2-yl)-2,5-diphenyltetrazolium bromide (MTT) (20 μL, 2.5 mg/mL) was added to each well and incubated for 2 h at 37 °C and 5% CO2 humidified atmosphere. All solutions were then removed and 100 μL of DMSO was added to each well in order to dissolve the purple formazan crystals. A Thermo Scientific Multiskan EX microplate photometer was used to measure the absorbance in each well at 570 nm. Cell survival was determined as the absorbance of treated cells divided by the absorbance of controls and expressed as a percentage. The IC50 values were determined from plots of % survival against drug concentration. Each experiment was repeated in triplicates of triplicates and a mean value was obtained and stated as IC50 (μM) ± SD. Cisplatin was also used as a positive control.

In series [2] the test system is A2780cisR cells. Description: Chemosensitivity assay (MTT) in A2780cisR cells. The format is cell-based. The conditions noted are these: for IC50: 24 h exposure + 48 h recovery, MTT, mean ± SD.
Excerpt: as §1, §2, §3

In series [3] the test system is PNT2 cells. Put plainly: Chemosensitivity assay (MTT) in PNT2 cells. The series is classed as cell-based. To be noted: for IC50: 24 h exposure + 48 h recovery, MTT, mean ± SD.
Excerpt: as §1, §2, §3

Series [4] is described as follows: Stability and aquation in MeOD/D2O by 1H-NMR. The series is classed as physicochemical. To be noted: MeOD/D2O 1:1 v/v, 1.1 mM, 298 K, over 24 h. As to the method:
Owing to the limited aqueous solubility of the complexes, all the reactivity experiments were performed using a mixture MeOD/D2O (1:1 v/v) as a solvent. The stability of complexes 1–4 in MeOD/D2O was studied via ^1H-NMR spectroscopy over a period of 24 h. […] The stability of complexes 1–4 in dimethylsulfoxide (DMSO;1.1 mM) was also studied by ^1H-NMR spectroscopy over a period of 24 h (Figure S1). […] The ligand ind-py is also stable in MeOD/D2O over 24 h (Figure S1E).
Aquation of the monodentate ligand (X) is a common behaviour for half-sandwich complexes of the type [(arene/Cp)M(NUN)X] and it is usually considered an activation step, which allows further reactions with the corresponding targets. To study if aquation of complexes 1–4 occurs in MeOD/D2O (1:1 v/v), experiments in the presence of either one molar equivalent of silver nitrate (to force the release of the monodentate Cl^- ligand), or NaCl (to block hydrolysis), were performed.
Complexes 1–4 were dissolved in MeOD (2.2 mM) and diluted to a final concentration of 1.1 mM with either MeOD or D2O. ^1H-NMR spectra were recorded at t ≤ 10 min, 12 h and 24 h. The samples were then reacted with either 1 mol. equiv. of silver nitrate to obtain the fully hydrolysed species or NaCl to block hydrolysis.

Consider `N.N.[Cl][Pt][Cl]` [Cisplatin, reference compound], for which the IC50 in series [1] was determined as 10.3 ± 0.5 µM; in series [2], 22.4 ± 0.5 µM; in series [3] it was 43 ± 3 µM.

For `c1ccc(-c2cc3ccccc3[nH]2)nc1` [Ind-py, 2-(2-pyridinyl)-1H-indole, reference compound], the “Cytotoxicity against A2780 (in words)” value in series [1] (Figure S14) was “non-cytotoxic”. The IC50 in series [1] (Homo sapiens, A2780) was greater than 100 µM; in series [2] (Homo sapiens, A2780cisR) it was greater than 100 µM; in series [3] (Homo sapiens, PNT2) it was greater than 100 µM. In addition, the “Cytotoxicity against A2780cisR (in words)” value in series [2] (Figure S14) is “non-cytotoxic”. For the same compound, the “Cytotoxicity against PNT2 (in words)” value in series [3] (Figure S14) is “non-cytotoxic”. In series [4], the “Stability in MeOD/D2O” value is given as “stable”.

For the origin of these results see publication PMC7583056, “Synthesis, Characterisation and In Vitro Anticancer Activity of Catalytically Active Indole-Based Half-Sandwich Complexes” (Molecules, 2020).
